Results published in PubChem BioAssay (NCI).
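Assay format: 96-well plates, 48-hour exposure. TGI: concentration producing complete growth inhibition.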

How the values were obtained:
Assay in all cases: inhibition of tumour cell growth, NCI panel, 48 h
[1] = system: NCI-H522 lung
[2] = system: SR leukemia
[3] = system: EKVX NSCLC
[4] = system: HOP-62 NSCLC
[5] = system: NCI-H226 lung
[6] = system: MOLT-4 leukemia
[7] = system: UACC-257 melanoma
[8] = system: IGROV1 ovarian
[9] = system: K-562 leukemia
[10] = system: TK-10 renal
[11] = system: ACHN renal
[12] = system: SK-MEL-2 melanoma
[13] = system: HCT-15 colon
[14] = system: HOP-92 NSCLC
[15] = system: RXF 393 renal
[16] = system: HCT-116 colon
[17] = system: MDA-MB-435
[18] = system: PC-3 prostate
[19] = system: OVCAR-4 ovarian
[20] = system: LOX IMVI melanoma
[21] = system: U251 CNS
[22] = system: HT29 colon
[23] = system: M14 melanoma
[24] = system: UACC-62 melanoma
[25] = system: SK-MEL-5 melanoma
[26] = system: A498 renal
[27] = system: 786-0 renal
[28] = system: SN12C renal
[29] = system: KM12 colon
[30] = system: NCI/ADR-RES ovarian
[31] = system: SK-MEL-28 melanoma
[32] = system: MDA-N
[33] = system: HCC-2998 colon
[34] = system: OVCAR-5 ovarian
[35] = system: SF-268 CNS
[36] = system: UO-31 renal
[37] = system: HL-60(TB) leukemia
[38] = system: T-47D breast
[39] = system: OVCAR-8 ovarian
[40] = system: CAKI-1 renal
[41] = system: MDA-MB-231 breast
[42] = system: HS 578T breast
[43] = system: A549 NSCLC
[44] = system: BT-549 breast
[45] = system: RPMI-8226 leukemia
[46] = system: SNB-19 CNS
[47] = system: NCI-H23 lung
[48] = system: SW-620 colon
[49] = system: SF-295 CNS
[50] = system: OVCAR-3 ovarian
[51] = system: MALME-3M melanoma
[52] = system: NCI-H460 lung
[53] = system: SF-539 CNS
[54] = system: SNB-75 CNS
[55] = system: MCF7 breast
[56] = system: SK-OV-3 ovarian
[57] = system: CCRF-CEM leukemia
[58] = system: COLO 205 colon
[59] = system: DU-145 prostate

COc1cc(C)cc(OC)c1/C=C/C(=O)O
TGI [1]: > 100 µM
TGI [2]: > 100 µM
TGI [3]: > 100 µM
TGI [4]: > 100 µM
TGI [5]: > 100 µM
TGI [6]: > 100 µM
TGI [7]: > 100 µM
TGI [8]: > 100 µM
TGI [9]: > 100 µM
TGI [10]: > 100 µM
TGI [11]: > 100 µM
TGI [12]: > 100 µM
TGI [13]: > 100 µM
TGI [14]: > 100 µM
TGI [15]: > 100 µM
TGI [16]: > 100 µM
TGI [17]: > 100 µM
TGI [18]: > 100 µM
TGI [19]: > 100 µM
TGI [20]: > 100 µM
TGI [21]: > 100 µM
TGI [22]: > 100 µM
TGI [23]: > 100 µM
TGI [24]: > 100 µM
TGI [25]: > 100 µM
TGI [26]: > 100 µM
TGI [27]: > 100 µM
TGI [28]: > 100 µM
TGI [29]: > 100 µM
TGI [30]: > 100 µM
TGI [31]: > 100 µM
TGI [32]: > 100 µM
TGI [33]: > 100 µM
TGI [34]: > 100 µM
TGI [35]: > 100 µM
TGI [36]: > 100 µM
TGI [37]: > 100 µM
TGI [38]: > 100 µM
TGI [39]: > 100 µM
TGI [40]: > 100 µM
TGI [41]: > 100 µM
TGI [42]: > 100 µM
TGI [43]: > 100 µM
TGI [44]: > 100 µM
TGI [45]: > 100 µM
TGI [46]: > 100 µM
TGI [47]: > 100 µM
TGI [48]: > 100 µM
TGI [49]: > 100 µM
TGI [50]: 87.6 µM
TGI [51]: > 100 µM
TGI [52]: > 100 µM

COc1cc(C2C3=C(N=C4SC(C(C)=O)=C(C)N42)c2ccccc2CC3)cc(OC)c1OC (stereo not drawn)
TGI [53]: > 100 µM
TGI [3]: > 100 µM
TGI [4]: > 100 µM
TGI [5]: > 100 µM
TGI [7]: > 100 µM
TGI [8]: > 100 µM
TGI [9]: 85.2 µM
TGI [11]: > 100 µM
TGI [12]: > 100 µM
TGI [14]: > 100 µM
TGI [15]: > 100 µM
TGI [16]: > 100 µM
TGI [17]: > 100 µM
TGI [54]: > 100 µM
TGI [18]: > 100 µM
TGI [55]: > 100 µM
TGI [19]: > 100 µM
TGI [20]: > 100 µM
TGI [21]: > 100 µM
TGI [22]: > 100 µM
TGI [56]: > 100 µM
TGI [23]: > 100 µM
TGI [57]: > 100 µM
TGI [24]: > 100 µM
TGI [25]: > 100 µM
TGI [26]: > 100 µM
TGI [27]: > 100 µM
TGI [28]: > 100 µM
TGI [29]: > 100 µM
TGI [30]: > 100 µM
TGI [31]: > 100 µM
TGI [32]: > 100 µM
TGI [33]: > 100 µM
TGI [34]: > 100 µM
TGI [35]: > 100 µM
TGI [36]: > 100 µM
TGI [37]: 81.4 µM
TGI [38]: 50.9 µM
TGI [39]: > 100 µM
TGI [58]: > 100 µM
TGI [41]: > 100 µM
TGI [42]: > 100 µM
TGI [59]: > 100 µM
TGI [43]: > 100 µM
TGI [44]: > 100 µM
TGI [45]: 93.4 µM
TGI [46]: > 100 µM
TGI [47]: > 100 µM
TGI [48]: > 100 µM
TGI [49]: > 100 µM
TGI [50]: > 100 µM
